Where “and” joins values, the source holds several entries; their conditions need not be identical. Equal entries are not always repeated.
Test: xn = mol fraction of the nth substance listed

CCCCCCCC/C=C\CCCCCCCC(=O)OCC(COC(=O)CCCCCCC/C=C\CCCCCCCC)OC(=O)CCCCCCC/C=C\CCCCCCCC + Cc1ccc(C)cc1
viscosity [mPa·s], 101.33 kPa
Conditions | 293.15 K | 298.15 K | 303.15 K | 308.15 K | 313.15 K
x1 = 0.000755 | 0.6573 | 0.6175 | 0.5813 | 0.5465 | 0.5168
x1 = 0.001496 | 0.6699 | 0.6292 | 0.5923 | 0.5567 | 0.5261
x1 = 0.004118 | 0.7209 | 0.6762 | 0.6359 | 0.5968 | 0.5636
x1 = 0.007318 | 0.7825 | 0.7329 | 0.6883 | 0.6454 | 0.609
x1 = 0.01139 | 0.8597 | 0.8042 | 0.7541 | 0.706 | 0.665
x1 = 0.01526 | 0.9594 | 0.8955 | 0.8379 | 0.7833 | 0.7368
x1 = 0.02469 | 1.185 | 1.101 | 1.027 | 0.9558 | 0.8959
x1 = 0.02908 | 1.291 | 1.197 | 1.115 | 1.037 | 0.9704
x1 = 0.03513 | 1.421 | 1.316 | 1.222 | 1.134 | 1.06
x1 = 0.04678 | 1.777 | 1.637 | 1.513 | 1.399 | 1.302
x1 = 0.06075 | 2.241 | 2.061 | 1.885 | 1.733 | 1.605

CC(=O)c1ccccc1 + Cc1ccccc1
viscosity, 101 kPa
Conditions | x2 = 0.1093 | x2 = 0.2145 | x2 = 0.3206 | x2 = 0.4281 | x2 = 0.5229 | x2 = 0.6213 | x2 = 0.7157 | x2 = 0.8392 | x2 = 0.9074
298.15 K | 1.561 mPa·s and 1.561 mPa·s | 1.446 mPa·s and 1.446 mPa·s | 1.329 mPa·s and 1.329 mPa·s | 1.211 mPa·s and 1.211 mPa·s | 1.105 mPa·s and 1.105 mPa·s | 0.9949 mPa·s and 0.9949 mPa·s | 0.8879 mPa·s and 0.8879 mPa·s | 0.7472 mPa·s and 0.7472 mPa·s | 0.6694 mPa·s and 0.6694 mPa·s
303.15 K | 1.426 mPa·s and 1.426 mPa·s | 1.323 mPa·s and 1.323 mPa·s | 1.218 mPa·s and 1.218 mPa·s | 1.112 mPa·s and 1.112 mPa·s | 1.018 mPa·s and 1.018 mPa·s | 0.9188 mPa·s and 0.9188 mPa·s | 0.8233 mPa·s and 0.8233 mPa·s | 0.6978 mPa·s and 0.6978 mPa·s | 0.6286 mPa·s and 0.6286 mPa·s
308.15 K | 1.31 mPa·s and 1.31 mPa·s | 1.217 mPa·s and 1.217 mPa·s | 1.123 mPa·s and 1.123 mPa·s | 1.027 mPa·s and 1.027 mPa·s | 0.9425 mPa·s and 0.9425 mPa·s | 0.8535 mPa·s and 0.8535 mPa·s | 0.7678 mPa·s and 0.7678 mPa·s | 0.6554 mPa·s and 0.6554 mPa·s | 0.5933 mPa·s and 0.5933 mPa·s

CCC(O)CC + Cc1ccccc1
viscosity [mPa·s], 101 kPa
Conditions | x1 = 0.1 | x1 = 0.1999 | x1 = 0.2999 | x1 = 0.4 | x1 = 0.4999 | x1 = 0.6 | x1 = 0.6999 | x1 = 0.8 | x1 = 0.9001
303.15 K | 0.5369 | 0.57 | 0.6172 | 0.6865 | 0.7794 | 0.9264 | 1.142 | 1.52 | 2.12
308.15 K | 0.5072 | 0.5352 | 0.5765 | 0.6364 | 0.7145 | 0.8369 | 1.015 | 1.313 | 1.767
313.15 K | 0.4793 | 0.5027 | 0.5395 | 0.5918 | 0.658 | 0.7604 | 0.9062 | 1.147 | 1.493
318.15 K | 0.4555 | 0.4739 | 0.5062 | 0.5515 | 0.6092 | 0.6951 | 0.8461 | 1.013 | 1.285
323.15 K | 0.433 | 0.4499 | 0.4765 | 0.5154 | 0.5649 | 0.6384 | 0.7404 | 0.9004 | 1.112

CCCCCCCC/C=C\CCCCCCCC(=O)OCC(COC(=O)CCCCCCC/C=C\CCCCCCCC)OC(=O)CCCCCCC/C=C\CCCCCCCC + Cc1ccccc1
viscosity [mPa·s], 101.33 kPa
Conditions | x1 = 0.000651 | x1 = 0.001141 | x1 = 0.003237 | x1 = 0.006694 | x1 = 0.009965 | x1 = 0.015 | x1 = 0.01736 | x1 = 0.02174 | x1 = 0.03032 | x1 = 0.04061
293.15 K | 0.6007 | 0.6111 | 0.6517 | 0.7201 | 0.7951 | 0.9362 | 0.971 | 1.073 | 1.306 | 1.616
298.15 K | 0.5652 | 0.5749 | 0.6124 | 0.6756 | 0.7447 | 0.8679 | 0.9064 | 0.9993 | 1.212 | 1.493
303.15 K | 0.5329 | 0.5419 | 0.5768 | 0.6355 | 0.6992 | 0.8126 | 0.8482 | 0.9337 | 1.129 | 1.385
308.15 K | 0.5016 | 0.5101 | 0.5425 | 0.5965 | 0.6557 | 0.7602 | 0.793 | 0.871 | 1.051 | 1.284
313.15 K | 0.4748 | 0.4827 | 0.513 | 0.5635 | 0.6185 | 0.7155 | 0.7459 | 0.8182 | 0.9851 | 1.198

O=S(Cl)Cl + Cc1ccccc1
298.15 K, 101 kPa
Conditions | viscosity [mPa·s]
x1 = 0.261 | 0.5832
x1 = 0.426 | 0.6019
x1 = 0.559 | 0.6139
x1 = 0.72 | 0.6223
x1 = 0.802 | 0.625
x1 = 0.923 | 0.6236

CC(=O)c1ccccc1 + ClC(Cl)Cl
298.15 K, 101 kPa
Conditions | viscosity [mPa·s]
x1 = 0.0992 | 0.655
x1 = 0.337 | 0.915
x1 = 0.501 | 1.107
x1 = 0.7125 | 1.352
x1 = 0.8875 | 1.53

CCCCCCCC/C=C\CCCCCCCC(=O)OCC(COC(=O)CCCCCCC/C=C\CCCCCCCC)OC(=O)CCCCCCC/C=C\CCCCCCCC + ClC(Cl)Cl
viscosity [mPa·s], 101.33 kPa
Conditions | x1 = 0.000728 | x1 = 0.000907 | x1 = 0.00244 | x1 = 0.004913 | x1 = 0.007824 | x1 = 0.01322 | x1 = 0.01672 | x1 = 0.03078
293.15 K | 0.5839 | 0.5875 | 0.6352 | 0.695 | 0.8133 | 1.032 | 1.109 | 1.733
298.15 K | 0.5545 | 0.5581 | 0.603 | 0.6576 | 0.7684 | 0.9701 | 1.042 | 1.585
303.15 K | 0.5275 | 0.5306 | 0.5725 | 0.6237 | 0.727 | 0.9137 | 0.9804 | 1.474

From the CheMixHub viscosity set
